These are literature values, as cited in US20220257592A1, “METHODS OF TREATING CANCER” (HOFFMANN-LA ROCHE INC., priority 2019, published 2022).

Molecules are shown by their SMILES.

In the data set the target is TrkC (Homo sapiens, UniProt Q16288). The note with it: cited from earlier work.
Sequence of TrkC (Q16288 32-839): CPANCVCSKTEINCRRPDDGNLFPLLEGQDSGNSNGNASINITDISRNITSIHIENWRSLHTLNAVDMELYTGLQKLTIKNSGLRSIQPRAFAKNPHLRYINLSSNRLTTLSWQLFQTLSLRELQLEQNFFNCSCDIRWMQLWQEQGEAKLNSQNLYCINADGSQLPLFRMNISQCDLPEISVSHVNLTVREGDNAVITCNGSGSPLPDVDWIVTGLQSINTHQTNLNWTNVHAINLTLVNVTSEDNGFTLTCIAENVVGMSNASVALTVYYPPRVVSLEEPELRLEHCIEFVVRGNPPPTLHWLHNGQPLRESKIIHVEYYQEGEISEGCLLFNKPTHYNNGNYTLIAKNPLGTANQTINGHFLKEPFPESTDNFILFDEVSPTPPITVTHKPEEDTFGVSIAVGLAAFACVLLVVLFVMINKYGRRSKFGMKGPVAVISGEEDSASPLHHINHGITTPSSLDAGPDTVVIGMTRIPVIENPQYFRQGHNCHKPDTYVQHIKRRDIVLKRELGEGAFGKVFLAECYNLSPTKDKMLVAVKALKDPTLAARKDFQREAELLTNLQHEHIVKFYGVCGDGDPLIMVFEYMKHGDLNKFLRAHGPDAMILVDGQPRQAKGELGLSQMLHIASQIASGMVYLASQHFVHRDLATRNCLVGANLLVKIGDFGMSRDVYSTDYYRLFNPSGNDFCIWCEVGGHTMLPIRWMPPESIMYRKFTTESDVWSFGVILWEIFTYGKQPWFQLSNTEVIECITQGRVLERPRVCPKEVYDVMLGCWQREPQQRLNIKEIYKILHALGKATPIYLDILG

For `CN1CCN(c2ccc(C(=O)Nc3n[nH]c4ccc(Cc5cc(F)cc(F)c5)cc34)c(NC3CCOCC3)c2)CC1` [Entrectinib, N-[5-(3,5-difluorobenzyl)-1H-indazol-3-yl]-4-(4-methyl-piperazin-1-yl)-2-(tetrahydro-pyran-4-ylamino)-benzamide], the “inhibition of TrkC tyrosine kinase” value is reported as “potent inhibitor”.
